# Source: patent publication US12384753B2, “17-beta-hydroxysteroid dehydrogenase type 13 inhibitors and methods of use thereof” (Enanta Pharmaceuticals, Inc., priority 2021, dated 2025)
# Biological target: Recombinant human HSD17B13 (Homo sapiens (Human), UniProt Q7Z5P4)
# Assay: HSD17B13 rapid-fire mass spectrometry assay (RF/MS assay)
# Type: biochemical
# Conditions: inhibition of HSD17B13; LTB4 10 μM, NAD+ 0.5 mM, RT 3 h; IC50 ranges A-E
# Outline: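 Product 12-oxo-LTB4 and substrate LTB4 quantified by RapidFire triple-quad MS in negative mode, giving percent conversion. Reaction: 80 nM recombinant hHSD17B13, 10 μM LTB4, 0.5 mM NAD+, compound up to 100 μM, pH 7.5, RT, 3 h. Variable-slope fit gave IC50; run in duplicate.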
# Chain of Recombinant human HSD17B13 (Q7Z5P4 20-300): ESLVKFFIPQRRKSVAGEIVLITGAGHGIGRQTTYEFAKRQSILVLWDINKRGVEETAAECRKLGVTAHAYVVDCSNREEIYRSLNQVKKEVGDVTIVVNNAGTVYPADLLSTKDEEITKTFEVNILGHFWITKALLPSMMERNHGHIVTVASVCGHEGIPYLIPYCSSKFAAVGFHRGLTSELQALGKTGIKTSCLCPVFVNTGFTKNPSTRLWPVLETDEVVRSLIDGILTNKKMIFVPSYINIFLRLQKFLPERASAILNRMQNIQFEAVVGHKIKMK
row,SMILES,IC50 [nM]
1,COc1cc(C(=O)O)ccc1NS(=O)(=O)c1ccc(-c2cnc(-c3ccccc3)s2)c(F)c1 [Example 337],100 to 500
2,COc1cc(C(=O)O)ccc1NS(=O)(=O)c1ccc(-c2ccc3c(c2)C(C)(C)CCC3(C)C)cc1F [Example 339],500 to 1000
3,COc1cc(C(=O)O)ccc1NS(=O)(=O)c1ccc(C2=CCN(c3ccccc3)CC2)cc1F [Example 341],500 to 1000
4,"COc1cc(C(=O)O)ccc1NS(=O)(=O)c1ccc(C2=CCC(c3ccccc3)CC2)cc1F (centres unmarked) [Example 343, 4-((3-fluoro-2′,3′,4′,5′-tetrahydro-[1,1′:4′,1″-terphenyl])-4-sulfonamido)-3-methoxybenzoic acid]",< 100
5,COc1cc(C(=O)O)ccc1NS(=O)(=O)c1csc(N2CCN(C(=O)OC(C)C)CC2)n1 [Example 347],1000 to 100000
6,COc1cc(C(=O)O)ccc1NS(=O)(=O)c1csc(-c2ccc(C3CCC(C(F)(F)F)CC3)cc2)n1 (centres unmarked) [Example 348],< 100
7,COc1cc(C(=O)O)ccc1NS(=O)(=O)c1csc(-c2ccc(C3=CCCCC3)cc2)n1 [Example 349],< 100
8,CCC[C@H]1CC[C@H](c2ccc(-c3nc(S(=O)(=O)Nc4ccc(C(=O)O)cc4OC)cs3)cc2)CC1 [Example 350],< 100
9,CC[C@H]1CC[C@H](c2ccc(-c3nc(S(=O)(=O)Nc4ccc(C(=O)O)cc4OC)cs3)cc2)CC1 [Example 352],< 100
10,"COc1cc(C(=O)O)ccc1NS(=O)(=O)c1csc(-c2ccc(C3CCC(C(C)(C)C)CC3)cc2)n1 (centres unmarked) [Example 353, 4-((2-(4-(4-(tert-butyl)cyclohexyl)phenyl)thiazole)-4-sulfonamido)-3-methoxybenzoic acid]",< 100
11,COc1cc(C(=O)O)ccc1NS(=O)(=O)c1csc(C2=CCC(c3ccccc3)CC2)n1 (centres unmarked) [Example 354],< 100
12,COc1cc(C(=O)O)ccc1NS(=O)(=O)c1csc(-c2ccc(C3CCC(OC(F)(F)F)CC3)cc2)n1 (centres unmarked) [Example 367],< 100
13,COc1cc(C(=O)O)ccc1NS(=O)(=O)c1csc(-c2ccc(C3CCCC(C)(C)C3)cc2)n1 (centres unmarked) [Example 368],100 to 500
14,COc1cc(C(=O)O)ccc1NS(=O)(=O)c1csc(-c2ccc(C3CCOCC3)cc2)n1 [Example 370],500 to 1000
15,COc1cc(C(=O)O)ccc1NS(=O)(=O)c1csc(-c2ccc(C3CCC(F)(F)CC3)cc2)n1 [Example 371],100 to 500
16,COc1cc(C(=O)O)c(F)cc1NS(=O)(=O)c1csc(-c2ccc(C3CCC(C)(C)CC3)cc2)n1 [Example 372],< 100
17,CCC[C@H]1CC[C@H](C2CC=C(c3nc(S(=O)(=O)Nc4ccc(C(=O)O)cc4OC)cs3)CC2)CC1 (some centres unmarked) [Example 373],100 to 500
18,COc1cc(C(=O)O)ccc1NS(=O)(=O)c1coc(-c2ccccc2)n1 [Example 375],< 100

row,SMILES,IC50 [nM]
1,"COc1cc(C(=O)O)ccc1NS(=O)(=O)c1ccc(-c2cnc(-c3ccc(C4CCCCC4)cc3)s2)cc1 [Example 378, 4-((4-(2-(4-cyclohexylphenyl)thiazol-5-yl)phenyl)sulfonamido)-3-methoxybenzoic acid]",1000 to 100000
2,CCC[C@H]1CC[C@H](C2CC=C(c3nc(S(=O)(=O)Nc4ccc(C(=O)O)cc4OC)cs3)CC2)CC1 (some centres unmarked) [Example 379],100 to 500
3,COc1cc(C(=O)O)ccc1NS(=O)(=O)c1csc(-c2ccc(C3CCC(OC)CC3)cc2)n1 (centres unmarked) [Example 380],100 to 500
4,CCC[C@H]1CC[C@H](C2CCC(c3nc(S(=O)(=O)Nc4ccc(C(=O)O)cc4OC)cs3)CC2)CC1 (some centres unmarked) [Example 381],100 to 500
5,COc1cc(C(=O)O)ccc1NS(=O)(=O)c1csc(-c2ccc(-c3ccc4c(c3)OCCO4)cc2)n1 [Example 382],< 100
6,COc1cc(C(=O)O)ccc1NS(=O)(=O)c1csc(-c2ccc(-c3ccc(-c4ccc5c(c4)OCCO5)cc3)cc2)n1 [Example 383],< 100
7,"O=C(O)c1ccc2cc(NS(=O)(=O)c3cnc(-c4ccc(F)cc4)s3)ccc2c1 [Example 387, 6-((2-(4-fluorophenyl)thiazole)-5-sulfonamido)-2-naphthoic acid]",1000 to 100000
8,"O=C(O)c1ccc2sc(NS(=O)(=O)c3cnc(-c4ccc(F)cc4)s3)nc2c1 [Example 388, 2-((2-(4-fluorophenyl)thiazole)-5-sulfonamido)benzo[d]thiazole-5-carboxylic acid]",1000 to 100000
9,"COc1cc(-c2ccc(C(=O)O)cc2)ccc1NS(=O)(=O)c1cnc(-c2ccc(F)cc2)s1 [Example 389, 4′-((2-(4-fluorophenyl)thiazole)-5-sulfonamido)-3′-methoxy-[1,1′-biphenyl]-4-carboxylic acid]",1000 to 100000
10,COc1cc(-c2ccc(C(=O)O)cc2OC)ccc1NS(=O)(=O)c1cnc(-c2ccc(F)cc2)s1 [Example 390],1000 to 100000
11,COc1cc(C(=O)O)ccc1NS(=O)(=O)c1csc(C#Cc2ccc(C(N)=O)c(OC(F)(F)F)c2)n1 [Example 391],100 to 500
12,"CCOP(=O)(OCC)c1ccc(NS(=O)(=O)c2csc(C#Cc3cccc(OC(F)(F)F)c3)n2)c(OC)c1 [Example 392, diethyl (3-methoxy-4-((2-((3-(trifluoromethoxy)phenyl)ethynyl)thiazole)-4-sulfonamido)phenyl)phosphonate]",1000 to 100000
13,"COc1cc(C(=O)O)ccc1NS(=O)(=O)c1csc(C#Cc2ccc(F)c(OC(F)(F)F)c2)n1 [Example 393, 4-((2-((4-fluoro-3-(trifluoromethoxy)phenyl)ethynyl)thiazole)-4-sulfonamido)-3-methoxybenzoic acid]",< 100
14,COc1cc(C(=O)O)ccc1NS(=O)(=O)c1csc(C#Cc2ccc(C(=O)O)c(OC(F)(F)F)c2)n1 [Example 394],1000 to 100000
15,COc1cc(C(=O)O)ccc1NS(=O)(=O)c1csc(C#Cc2ccc(OC)c(OC(F)(F)F)c2)n1 [Example 395],< 100
16,COc1cc(C(=O)O)ccc1NS(=O)(=O)c1csc(C#Cc2ccc(C#N)c(OC(F)(F)F)c2)n1 [Example 397],< 100
17,COC(=O)c1ccc(C#Cc2nc(S(=O)(=O)Nc3ccc(C(=O)O)cc3OC)cs2)cc1OC(F)(F)F [Example 398],< 100
18,"COc1ccc(C#Cc2nc(S(=O)(=O)Nc3ccc(C(=O)O)cc3OC)cs2)c(C(C)C)c1 [Example 399, 4-((2-((2-isopropyl-4-methoxyphenyl)ethynyl)thiazole)-4-sulfonamido)-3-methoxybenzoic acid]",< 100

# Further lines, results first:
row,IC50 [nM],SMILES
1,100 to 500,COc1cc(C(=O)O)ccc1NS(=O)(=O)N1Cc2ccc(-c3ccc(F)cc3)cc2C1 [Example 338]
2,1000 to 100000,COc1cc(C(=O)O)ccc1NS(=O)(=O)c1ccc(-c2ccc(C3CCCCC3)cc2)cn1 [Example 340]
3,500 to 1000,COc1cc(C(=O)O)ccc1NS(=O)(=O)N1Cc2ccc(C#CC3CCCC3)cc2C1 [Example 342]
4,500 to 1000,COc1cc(C(=O)O)ccc1NS(=O)(=O)N1Cc2nc(-c3ccc(C4CCCCC4)cc3)sc2C1 [Example 344]
5,100 to 500,COc1cc(C(=O)O)ccc1NS(=O)(=O)N1Cc2nc(C#CC3CCCC3)sc2C1 [Example 345]
6,1000 to 100000,COc1cc(C(=O)O)ccc1NS(=O)(=O)c1ccc(-c2ccc(C3CCCCC3)cc2)nc1 [Example 346]
7,< 100,COc1cc(C(=O)O)ccc1NS(=O)(=O)c1csc(-c2ccc(C3CCC3)cc2)n1 [Example 351]
8,100 to 500,COc1cc(C(=O)O)ccc1NS(=O)(=O)c1ccc(-c2cnn(C3CCCCC3)c2)cc1F [Example 355]
9,100 to 500,COc1cc(C(=O)O)ccc1NS(=O)(=O)c1ccc(C2=CCC3(CC2)OCCO3)cc1F [Example 356]
10,100 to 500,COc1cc(C(=O)O)ccc1NS(=O)(=O)c1ccc(C2CCC(c3ccccc3)CC2)cc1F (centres unmarked) [Example 357]
11,100 to 500,COc1cc(C(=O)O)ccc1NS(=O)(=O)N1Cc2nc(C3=CCC(F)(F)CC3)sc2C1 [Example 358]
12,< 100,"COc1cc(C(=O)O)ccc1NS(=O)(=O)N1Cc2nc(C3=CCC(c4ccccc4)CC3)sc2C1 (centres unmarked) [Example 359, 3-methoxy-4-((2-(1,2,3,6-tetrahydro-[1,1′-biphenyl]-4-yl)-5,6-dihydro-4H-pyrrolo[3,4-d]thiazole)-5-sulfonamido)benzoic acid]"
13,1000 to 100000,COc1cc(C(=O)O)ccc1NS(=O)(=O)N1Cc2cccc(-c3ccc(C4CCCCC4)cc3)c2C1 [Example 360]
14,1000 to 100000,COc1cc(C(=O)O)ccc1NS(=O)(=O)c1ccc(-c2ccc(C3CCCCC3)cc2)cc1 [Example 361]
15,100 to 500,COc1cc(C(=O)O)ccc1NS(=O)(=O)N1Cc2nc(C3=CCC(C(C)(C)C)CC3)sc2C1 (centres unmarked) [Example 362]
16,500 to 1000,COc1cc(C(=O)O)ccc1NS(=O)(=O)N1Cc2ccc(-c3ccc(C4CCCCC4)cc3)cc2C1 [Example 364]
17,100 to 500,COc1cc(C(=O)O)ccc1NS(=O)(=O)c1csc(-c2cccc(C3CCCCC3)c2)n1 [Example 366]
18,100 to 500,COc1cc(C(=O)O)ccc1NS(=O)(=O)c1ccc(-c2ccc(C3CCCCC3)cc2)s1 [Example 374]
19,< 100,"COc1cc(C(=O)O)ccc1NS(=O)(=O)N1Cc2nc(C3CCC(c4ccccc4)CC3)sc2C1 (centres unmarked) [Example 376, 3-methoxy-4-((2-(4-phenylcyclohexyl)-5,6-dihydro-4H-pyrrolo[3,4-d]thiazole)-5-sulfonamido)benzoic acid]"
20,1000 to 100000,"CCC[C@H]1CC[C@H](C2CC=C(c3ccc4c(c3)CN(S(=O)(=O)Nc3ccc(C(=O)O)cc3OC)C4)CC2)CC1 (stereo partly drawn) [Example 377, 3-methoxy-4-((5-((1S,1′s,4′S)-4′-propyl-[1,1′-bi(cyclohexan)]-3-en-4-yl)isoindoline)-2-sulfonamido)benzoic acid]"
21,100 to 500,COc1cc(C(=O)O)ccc1NS(=O)(=O)N1Cc2nc(-c3ccc4c(c3)OCCO4)sc2C1 [Example 384]
22,< 100,COc1cc(C(=O)O)ccc1NS(=O)(=O)c1cnc(-c2ccc(C3CCCCC3)cc2)s1 [Example 385]
23,100 to 500,COc1cc(C(=O)O)ccc1NS(=O)(=O)N1Cc2nc(-c3ccc4c(c3)CCCC4)sc2C1 [Example 386]
